Source: PubChem BioAssay (NCI)
Values joined by “and” are separate entries in the source; they are usually repeats but may differ in a detail not shown here. Identical values can stand only once.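 Cells were grown in 96-well plates and exposed to each compound for 48 hours at five concentrations; endpoints were interpolated linearly between bracketing concentrations, or set to the highest concentration if not reached. GI50 = concentration required for 50% inhibition of growth. At the TGI there is no net growth.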

Assays:
Experiment in all cases: NCI tumour cell line growth inhibition, 48 h
A549 NSCLC = tested on: A549 NSCLC
SK-MEL-28 melanoma = tested on: SK-MEL-28 melanoma
M14 melanoma = tested on: M14 melanoma
KM12 colon = tested on: KM12 colon
IGROV1 ovarian = tested on: IGROV1 ovarian
SF-295 CNS = tested on: SF-295 CNS
MDA-MB-435 = tested on: MDA-MB-435
UACC-257 melanoma = tested on: UACC-257 melanoma
A498 renal = tested on: A498 renal
SK-OV-3 ovarian = tested on: SK-OV-3 ovarian

Row | SMILES | GI50 (A549 NSCLC) | TGI (A549 NSCLC) | GI50 (SK-MEL-28 melanoma) | TGI (SK-MEL-28 melanoma) [µM] | GI50 (M14 melanoma) [µM] | TGI (M14 melanoma) [µM] | GI50 (KM12 colon) | TGI (KM12 colon) | GI50 (IGROV1 ovarian) [µM] | TGI (IGROV1 ovarian) [µM] | GI50 (SF-295 CNS) | TGI (SF-295 CNS) | GI50 (MDA-MB-435) [µM] | TGI (MDA-MB-435) [µM] | GI50 (UACC-257 melanoma) | TGI (UACC-257 melanoma) | GI50 (A498 renal) [µM] | TGI (A498 renal) [µM] | GI50 (SK-OV-3 ovarian) | TGI (SK-OV-3 ovarian)
1 | O=C(NCCCNc1cc(-c2cn(-c3ccccc3)nc2-c2cccc(O)c2)ccn1)c1ccccc1 | 4.62 µM | 34.4 µM | 2.18 µM | 6.08 | 2.56 | 6.72 | 3.34 µM | 14.8 µM | 4.2 | 59.6 | 1760 nM | 4.81 µM | 1.87 | 4.75 | 2070 nM | 4.4 µM | 2.32 | 66.4 | 6.63 µM | 92.8 µM
2 | CC/C=C\C[C@H](O)C/C=C1/C(=O)C=C[C@@H]1C/C=C\CCCC(=O)N(C)C | 3.01 µM | 11.3 µM | 1.96 µM | 4.31 | 2.79 | 11 | 0.709 µM | 4.03 µM | 3.3 | 11.2 | 2970 nM | 11.1 µM | 0.862 | 2.37 | 2370 nM | 7.31 µM | 2.56 | 4.46 | 4.36 µM | 15.6 µM
3 | CCOC(=O)C(Cc1c[nH]c2ccc(N(CCCl)CCCl)cc12)(NC(C)=O)C(=O)OCC | 1.8 µM and 1.04 µM | 25.1 µM and 63.9 µM | 31.6 µM and 23 µM | 238 | 12.3 | 116 | 22.1 µM and 14.9 µM | 83.5 µM and 36.3 µM | 19.4 | 102 | 5410 nM and 4200 nM | 32 µM and 232 µM | 16.9 | 33.1 | 17600 nM and 23900 nM | 52.6 µM and 94 µM | 20.3 | 54.2 | 22.6 µM and 17.5 µM | 99.4 µM and 131 µM
4 | CN1CCCN(C)C1c1cc([N+](=O)[O-])ccc1O |  | > 100 µM |  | 82.3 |  | 58.5 |  | > 100 µM |  | > 100 |  | > 100 µM |  | > 100 |  | 61.3 µM |  | > 100 |  | > 100 µM
5 | CCCCCCCCCCN(CCCCCCCCCC)CC(=O)c1ccc2cc(Br)c3ccccc3c2c1 | 4.15 µM | 14.4 µM | 1.84 µM | 3.32 | 1.91 | 3.53 | 1.88 µM | 3.66 µM | 1.84 | 3.6 | 1750 nM | 3.53 µM | 1.76 | 3.42 | 2110 nM | 4.4 µM | 10.2 | 22.4 | 4.94 µM | 17.6 µM
6 | CC(=O)O[C@H]1CC[C@@]2(C)C(=CC[C@H]3[C@@H]4C/C(=C\c5cccc(OCCN6CCOCC6)c5)[C@H](OC(C)=O)[C@@]4(C)CC[C@@H]32)C1 | 5.05 µM | 20.5 µM | 5.48 µM | 17.6 | 5.91 | 18.9 | 3.84 µM | 14.2 µM | 25.6 | 80.2 | 2480 nM | 10.5 µM | 11.1 | 23.1 | 2790 nM | 5.04 µM | 15.3 | 29.1 | 6.85 µM | 34 µM
7 | C[C@]1(CO)[C@H]2CC[C@@]34C=C[C@@](CO)(CC[C@H]3[C@]2(C)CC[C@H]1O)C4 |  | > 100 µM |  | > 100 |  | > 100 |  | > 100 µM |  | > 100 |  | > 100 µM |  | > 100 |  | > 100 µM |  | > 100 |  | > 100 µM
8 | O=c1nc(Nc2cccc(Cl)c2)oc2cc(Cl)oc(=O)c12 | 19.7 µM | 60.6 µM | 8.76 µM | 22.7 | 8.37 | 26.9 | 11.4 µM | 31.8 µM | 5.13 | 21.1 | 12100 nM | 43 µM | 5.34 | 20.8 | 10300 nM | 23.9 µM | 10.9 | 27.3 | 17.2 µM | 66.1 µM
9 | CCCCNN |  | > 100 µM |  | > 100 |  | > 100 |  | > 100 µM |  | > 100 |  | > 100 µM |  | > 100 |  | > 100 µM |  | > 100 |  | > 100 µM
